# According to patent publication US20260151345A1, “FAST-DISSOLVING DOSAGE FORMS AND USES THEREOF” (Astrocyte Pharmaceuticals, Inc., priority 2022, published 2026):
# Where “and” joins values, the source holds several entries; their conditions need not be identical. Equal entries are not always repeated. Where two headings read alike, the source gives them in different places.
# Legend:
# male Beagle dogs = assay: Tolerability (cageside observations) after ODT dose; assay type: in vivo; conditions: 50.75 mg/dose via ODT
# Procedure: (§1) Dosing occurred at 50.75 mg/dose. The ODT was placed on the dog's tongue and the mouth held shut for approximately 30 seconds to allow the material to dissolve. In each case, the tablet quickly formed a white paste that was adhered to the tongue and was not swallowed whole.
# Cageside Observations, General signs of toxicity including fecal and urine quality, were completed approximately 1 hour post dose on dose days.
# [1] = Pharmacokinetics / bioavailability after oral disintegrating tablet dose; assay type: in vivo, male Beagle dogs; conditions: for AUC(0-t) / AUC(0-inf) / Cmax / Tmax / half-life: po, 50.75 mg
# Procedure: The purpose of this study was to evaluate the bioavailability of Compound A following administration of the ODT formulation. Animals were administered Compound A, as described in the following table.
# as §1
# Whole blood samples were collected from all animals as noted in the following table for determination of test article exposure.
# • Method: LC-MS/MS • Column: Restek Raptor ARC-18 2.7 μm (30×2.1 mm) • Mobile Phase A: 0.1% Formic Acid in Water • Mobile Phase B: 0.1% Formic Acid in Acetonitrile • Ionization: (±) ESI with Ion Spray • Analyte: Compound A • MRM: m/z 324.200/182.200 amu • Internal Standard: Labetalol • MRM: m/z 329.200/294.200 amu • Assay Range (LLOQ and ULOQ): 1-5000 ng/mL
# Pharmacokinetic concentration-time data for Compound A was analyzed using non-compartmental methods (Phoenix® WinNonlin® Version 8.1) with nominal sampling times and dosages. The following parameters were calculated whenever possible and as data allowed: Volume of distribution, Clearance, tl/2, C0/Cmax, Tmax, % F. and AUC. Additional parameters may have been calculated as appropriate. Descriptive statistics were generated using Phoenix WinNonlin.
# [2] = single ODT dose 50.75 mg/dose, male Beagle dogs
smiles,measurement,setting,value
CSc1nc(N)c2ncn([C@H]3[C@H](O)[C@H](O)[C@]4(CO)C[C@H]34)c2n1 [Compound A],Tolerability,male Beagle dogs,well tolerated
same,"Compound A Plasma Concentration, individual animals","[1]; 0.25 hr postdose, ODT 50.75 mg/dose, male Beagle dogs",356 ng/mL and 309 ng/mL and 352 ng/mL and 114 ng/mL
same,"Compound A Plasma Concentration, individual animals","[1]; 0.5 hr postdose, ODT 50.75 mg/dose, male Beagle dogs",2300 ng/mL and 1840 ng/mL and 1690 ng/mL and 622 ng/mL
same,"Compound A Plasma Concentration, individual animals","[1]; 1 hr postdose, ODT 50.75 mg/dose, male Beagle dogs",2370 ng/mL and 2510 ng/mL and 1810 ng/mL
same,"Compound A Plasma Concentration, individual animals","[1]; 2 hr postdose, ODT 50.75 mg/dose, male Beagle dogs",1990 ng/mL and 2070 ng/mL and 1530 ng/mL
same,"Compound A Plasma Concentration, individual animals","[1]; 4 hr postdose, ODT 50.75 mg/dose, male Beagle dogs",1100 ng/mL and 1160 ng/mL and 798 ng/mL
same,"Compound A Plasma Concentration, individual animals","[1]; 8 hr postdose, ODT 50.75 mg/dose, male Beagle dogs",319 ng/mL and 413 ng/mL and 248 ng/mL
same,"Compound A Plasma Concentration, individual animals","[1]; 24 hr postdose, ODT 50.75 mg/dose, male Beagle dogs",132 ng/mL and 48.3 ng/mL and 119 ng/mL and 28.8 ng/mL
same,"Percent F, Mean","[1]; N=4, single ODT dose, 4.66 mg/kg dose used for calculation, estimated value",114%
same,concentration at 0.25 h,"[1]; male, Beagle, dog, plasma, oral, 50.75 mg/dose, 0.25 hr postdose, N=4, ODT 50.75 mg/dose, male Beagle dogs, read-out: Compound A Plasma Concentration, Mean",283 ng/mL
same,concentration at 0.5 h,"[1]; male, Beagle, dog, plasma, oral, 50.75 mg/dose, 0.5 hr postdose, N=4, ODT 50.75 mg/dose, male Beagle dogs, read-out: Compound A Plasma Concentration, Mean",1610 ng/mL
same,concentration at 1 h,"[1]; male, Beagle, dog, plasma, oral, 50.75 mg/dose, 1 hr postdose, N=4, ODT 50.75 mg/dose, male Beagle dogs, read-out: Compound A Plasma Concentration, Mean",2190 ng/mL
same,concentration at 1 h,"[1]; male, Beagle, dog, plasma, oral, 50.75 mg/dose, 1 hr postdose, ODT 50.75 mg/dose, male Beagle dogs, read-out: Compound A Plasma Concentration, individual animals",2080 ng/mL
same,concentration at 2 h,"[1]; male, Beagle, dog, plasma, oral, 50.75 mg/dose, 2 hr postdose, N=4, ODT 50.75 mg/dose, male Beagle dogs, read-out: Compound A Plasma Concentration, Mean",1810 ng/mL
same,concentration at 2 h,"[1]; male, Beagle, dog, plasma, oral, 50.75 mg/dose, 2 hr postdose, ODT 50.75 mg/dose, male Beagle dogs, read-out: Compound A Plasma Concentration, individual animals",1650 ng/mL
same,concentration at 4 h,"[1]; male, Beagle, dog, plasma, oral, 50.75 mg/dose, 4 hr postdose, N=4, ODT 50.75 mg/dose, male Beagle dogs, read-out: Compound A Plasma Concentration, Mean",1010 ng/mL
same,concentration at 4 h,"[1]; male, Beagle, dog, plasma, oral, 50.75 mg/dose, 4 hr postdose, ODT 50.75 mg/dose, male Beagle dogs, read-out: Compound A Plasma Concentration, individual animals",964 ng/mL
same,concentration at 8 h,"[1]; male, Beagle, dog, plasma, oral, 50.75 mg/dose, 8 hr postdose, N=4, ODT 50.75 mg/dose, male Beagle dogs, read-out: Compound A Plasma Concentration, Mean",354 ng/mL
same,concentration at 8 h,"[1]; male, Beagle, dog, plasma, oral, 50.75 mg/dose, 8 hr postdose, ODT 50.75 mg/dose, male Beagle dogs, read-out: Compound A Plasma Concentration, individual animals",434 ng/mL
same,concentration at 24 h,"[1]; male, Beagle, dog, plasma, oral, 50.75 mg/dose, 24 hr postdose, N=4, ODT 50.75 mg/dose, male Beagle dogs, read-out: Compound A Plasma Concentration, Mean",82 ng/mL
same,AUC(0-t),"[1]; male, Beagle, dog, plasma, N=4, single ODT dose 50.75 mg/dose, male Beagle dogs, read-out: AUC0-24, Mean",12200 ng·h/mL
same,AUC(0-inf),"[1]; male, Beagle, dog, plasma, N=4, single ODT dose 50.75 mg/dose, male Beagle dogs, read-out: AUCinf, Mean",13000 ng·h/mL
same,Cmax,"[1]; male, Beagle, dog, plasma, N=4, single ODT dose 50.75 mg/dose, male Beagle dogs, read-out: Cmax, Mean",2250 ng/mL
same,Tmax,"[1]; male, Beagle, dog, plasma, N=4, single ODT dose 50.75 mg/dose, male Beagle dogs, read-out: Tmax, Mean",52.8 min
same,half-life,"[1]; male, Beagle, dog, plasma, N=4, single ODT dose 50.75 mg/dose, male Beagle dogs, read-out: t1/2, Mean (converted)",331 min
same,AUC(0-t),"[1]; male, Beagle, dog, plasma, single ODT dose 50.75 mg/dose, male Beagle dogs, read-out: AUC0-24, individual animals",9020 ng·h/mL
same,AUC(0-inf),"[1]; male, Beagle, dog, plasma, single ODT dose 50.75 mg/dose, male Beagle dogs, read-out: AUCinf, individual animals",9200 ng·h/mL
same,Cmax,"[1]; male, Beagle, dog, plasma, single ODT dose 50.75 mg/dose, male Beagle dogs, read-out: Cmax, individual animals",1810 ng/mL
same,Tmax,"[1]; male, Beagle, dog, plasma, single ODT dose 50.75 mg/dose, male Beagle dogs, read-out: Tmax, individual animals",60 min
same,half-life,"[1]; male, Beagle, dog, plasma, single ODT dose 50.75 mg/dose, male Beagle dogs, read-out: t1/2, individual animals (converted)",265 min
same,"AUC0-24, individual animals",[1]; [2],13300 ng·h/mL and 12400 ng·h/mL and 14300 ng·h/mL
same,"AUCinf, individual animals",[1]; [2],14700 ng·h/mL and 12700 ng·h/mL and 15300 ng·h/mL
same,"Cmax, individual animals",[1]; [2],2300 ng/mL and 2370 ng/mL and 2510 ng/mL
same,"Tmax, individual animals",[1]; [2],30 min
same,"t1/2, individual animals",[1]; [2],7.51 h and 4.33 h and 5.79 h
same,"Percent F, individual animals","[1]; single ODT dose, 4.66 mg/kg dose used for calculation, estimated from nominal dose and estimated AUCinf, 4.66 mg/kg",80.5% and 116% (2×) and 143%
